The subject of one assay is leptin production. As to the kind of experiment: Enhancing activity for leptin production in adipocytes (ELISA). To be noted: Rattus norvegicus, Adipocyte, leptin concentration as % of control group, read-out: Facilitating activity to produce leptin; for activity at 0.001 µM: 1 nm; for activity at 0.01 µM: 10 nm; for activity at 0.1 µM: 100 nm. It counts as cell-based, rat. Here is the method: Hanks solution was used for collection of adipose tissue. The Hanks solution was prepared by filtration of a mixed solution (pH: 7.5) of 120 mM NaCl, 4.8 mM KCl, 0.74 mM MgSO4, 0.30 mM Na2HPO4, 0.40 mM KH2PO4, 20 mM HEPES, 0.05% (w/v) glucose, 2% (w/v) BSA (Sigma-Aldrich Japan K. K., Cat. No. A7888), 0.95 mM CaCl2, 4.17 mM NaHCO3 and 1% (v/v) penicillin-streptomycin liquid (GIBCO BRL, Cat. No. 15140-122). The adipocytes were cultured in Dulbecco's modified Eagle's medium (GIBCO BRL, Cat. No. 11995-040) mixed with DMEM/F-12 (GIBCO BRL, Cat. No. 11320-033) at a ratio of 1:1, and added 0.2% (v/v) Hanks solution, 0.2 μg/L sodium selenite (GIBCO BRL, Cat. No. 13012-018), 0.002% (v/v) ethanolamine, 25 mM HEPES and 1% (v/v) penicillin-streptomycin liquid (GIBCO BRL, Cat. No. 15140-122). As many as possible of the other reagents used were special grade. In this experiment, the cells were cultured in a CO2 incubator (37° C., 95% humidity, 5% CO2).
Male Wistar Imamichi rats of 6 weeks old were sacrificed by bleeding following decapitation, and adipose tissue was removed from the epididymis and sectioned after the vessels were removed in warmed Hanks solution at 37° C. and were weighed. One (1) mL of Hanks solution containing 10 mg collagenase (Wako Pure Chemical Industries, Ltd., 034-10533) was added to the adipose tissue prepared. The solution was transferred into a tube having a volume of 50 mL, and the cells were evenly dispersed by incubation under gentle shaking at 37° C., 90 rpm, for 50 min. Then 20 mL of Hanks solution were added and filtrated through Nylon-mesh with a mesh diameter of 200 μm for removal of undigested tissue pieces. The floating adipocytes were separated from sediments and substances located in the lower layer by centrifugation at 1,000 rpm for 1 min at room temperature. The sediment and 22 mL of the low layer were pulled out with a probe, and the floating adipocytes were recovered. This procedure was repeated twice with Hanks solution and for 4 times with the culture medium. After these procedures the adipocytes were suspended in the culture medium at a volume of 60 mL per 1 g of the adipose tissue weighed previously. 100 μL of the suspended solution were plated in each well of a 96-well microplate (ASAHI TECHNO GLASS Corp.) In the group treated with the test compound, 1 μL/well of DMSO solution containing the dissolved the test compound at concentrations of 200 μM, 20 μM, 2 μM and 0.2 μM (final concentrations of the test compound: 1 μM, 100 nM, 10 nM and 1 nM, respectively) was plated in each of the well. In the control group, 1 μL/well of DMSO (final concentration: 0.1% (v/v)) was plated in each well. The plate was placed stationary in a CO2 incubator for 1 hr or longer, and the contents in the solution were equilibrated at 37° C. After they were equilibrated, the solution in each well was stirred with a magnetic stirrer in a water bath and the suspended solution maintained at 37° C. was plated into each well of the plate at 100 μL/well. After incubation of the cells for 24 hr, the suspended solution of cells was filtrated through a filter for the microplate, MultiScreen (MILLOPORE, MDV-N65). The concentration of leptin in the filtrated solution was determined with ELISA methods by using a Rat Leptin Determination Kit-IBL (Immuno-Biological Laboratories Co., Ltd., Cat. No. 17195). The facilitating activity of the compound to produce leptin was calculated from the following equation based on the concentration of leptin determined.
Facilitating Activity of the Compound to Produce Leptin (%)=(A/B)×100
A: Concentration of Leptin in the Treated Group with the Test Compound.
B: Concentration of Leptin in the Control Group.

The subject of a further assay is Rat white adipocytes. As to the kind of experiment: Inhibition of the differentiation of adipocytes (Oil Red O). Type of assay: cell-based. To be noted: Rattus norvegicus, Adipocyte, 120 h, 100 nM test compound; 5 days; Oil Red O ABS550; control = 100%, blank = 0%; Table 3; read-out: Rate of Differentiation (%). On the procedure: Rat white adipocytes contained in the white adipocyte culture kit purchased from HOKUDO were used. As the medium for proliferation and for differentiation-inducing, the medium contained in the white adipocyte culture kit purchased from HOKUDO was used. The cells in the present experiment were cultured in a CO2 incubator (37° C., 95% R.H., 5% CO2).
Immediately after arrival of the purchased cells, all medium for transportation was discarded and replaced with 5 ml of proliferation medium (/25 cm^2-flask) and the cells were cultured for one day. Then, a cell suspension was prepared with proliferation medium so as to be 83,000 cells/mL, and the cell suspension was plated into a type I 96-well collagen-coated microplate (SUMITOMO BAKELITE CO., ltd.) so as to be 5,000 cells/well (60 μL/well).
On the next day, all the proliferation medium was discarded and replaced with 147 μL/well of differentiation-inducing medium. Further, 1) in the group treated with the test compound, 3 μL/well of the solution, in which a test compound (100 μM) was dissolved in DMSO solution and diluted with differentiation-inducing medium by 20 times (final concentration of the test compound: 100 nM, final concentration of DMSO solution: 0.1% (v/v)), were added to the well where the cells were plated. 2) In the control group, 3 μL/well of DMSO solution that was diluted with differentiation-inducing medium by 20 times (final concentration of DMSO: 0.1% (v/v)) were added to the well where the cells were plated. Further, 3) in the blank group, 3 μL/well of DMSO solution that was diluted with differentiation-inducing medium by 20 times (final concentration: 0.1% (v/v)), was added to the blank well.
After culturing for 5 days, all differentiation-inducing medium was discarded and replaced with 60 μL of 10% (v/v) formaldehyde solution (for fixation) in each well and the cells were kept stationary for 20 min at room temperature. After this, the fixative solution was discarded and replaced with 60 μL of 0.2% (v/v) Triton X (Sigma-Aldrich Japan K. K.) solution in each well and kept stationary for 5 min at room temperature. Then all Triton X solution was discarded and replaced with 60 μL of 60% (v/v) isopropanol solution containing dissolved Oil Red O (Sigma-Aldrich Japan K. K.) so as to be 0.3%, which was adipose tissue staining solution, and the well was left stationary for 10 min at room temperature. After the adipose tissue staining solution was discarded, the well was washed twice with 60 JIL of 60% isopropanol solution. Then, 100 μL of the DMSO solution were added to each well and stirred for 5 min at room temperature, The absorbance was measured at 550 nm (ABS550) with a multi-plate reader (LabSystems), and the stained amount with Oil Red O was determined. The measured level at ABS550 in the control group was defined as 100%, while the level at ABS550 in the blank group was defined as 0%. The differentiation rate (%) of the adipocytes treated with the test compound was calculated.

Where two headings read alike, the source gives them in different places.

`CC(C)(C)OC(=O)N1CCN(c2ccc(NC(=O)c3cc([N+](=O)[O-])ccc3Cl)cc2)CC1` [Example 132, N-[4-(4-tert-Butoxycarbonylpiperazin-1-yl)phenyl]-(2-chloro-5-nitrophenyl)carboxamide]: in the assay with leptin production (24 h), the activity at 1 µM amounted to 127%, the activity at 0.001 µM amounted to 123%, the activity at 0.01 µM came out at 137% and the activity at 0.1 µM amounted to 119%. In the assay with Rat white adipocytes, the activity at 0.1 µM came to 26.9%.
Take `O=C(Nc1ccc(-c2ccc(NC(=O)c3cc([N+](=O)[O-])ccc3Cl)cc2)cc1)c1cc([N+](=O)[O-])ccc1Cl` [Example 163, 4-[4-[(2-Chloro-5-nitrophenyl)carbonylamino)phenyl]phenyl-(2-chloro-5-nitrophenyl)carboxamide]: in the assay on leptin production (24 hr), the activity at 1 µM stood at 124%, the activity at 0.001 µM turned out to be 108%, the activity at 0.01 µM came out at 117% and the activity at 0.1 µM stood at 118%. The activity at 0.1 µM in the assay with Rat white adipocytes turned out to be 48%.
With `O=C(Nc1ccc(-c2ccc(-n3cccc3)cc2)cc1)c1cc([N+](=O)[O-])ccc1Cl` [Example 186, N-[4-[4-(Pyrrol-1-yl)phenyl]phenyl]-(2-chloro-5-nitrophenyl)carboxamide], in the assay on leptin production (24 h), the activity at 1 µM is 133%, the activity at 0.01 µM was 118% and the activity at 0.1 µM was found to be 117%. Besides, the activity at 0.1 µM with Rat white adipocytes was 56.3%.
Consider `CCCCCCN(CCC)c1ccc(-c2ccc(NC(=O)c3cc([N+](=O)[O-])ccc3Cl)cc2)cc1` [Example 198, N-[4-[4-(N-Hexyl-N-propylamino)phenyl]phenyl]-(2-chloro-5-nitrophenyl)carboxamide], for which, in the assay with leptin production (24 h), the activity at 1 µM was determined as 111% and the activity at 0.1 µM was determined as 111%. For the same compound, the activity at 0.1 µM with Rat white adipocytes was 48.2%.
`CCCCCCN(CCCCC)c1ccc(-c2ccc(NC(=O)c3cc([N+](=O)[O-])ccc3Cl)cc2)cc1` [Example 200, N-[4-[4-(N-Hexyl-N-pentylamino)phenyl]phenyl]-(2-chloro-5-nitrophenyl)carboxamide]: the activity at 1 µM in the assay with leptin production (24 h) amounted to 117%. In addition, the activity at 0.1 µM with Rat white adipocytes was found to be 44.1%.
As for `CCCCCCN(CCCCCC)c1ccc(-c2ccc(NC(=O)c3cc([N+](=O)[O-])ccc3Cl)cc2)cc1` [Example 201, N-[4-[4-(N,N-Dihexylamino)phenyl]phenyl]-(2-chloro-5-nitrophenyl)carboxamide], in the assay with leptin production (24 h), the activity at 1 µM was 112% and the activity at 0.1 µM came out at 114%. Further, the activity at 0.1 µM in the assay on Rat white adipocytes stood at 46.9%.
Turning to `CCCCCNc1ccc(-c2ccc(NC(=O)c3cc([N+](=O)[O-])ccc3Cl)cc2)cc1` [Example 202, N-[4-[4-(N-Pentylamino)phenyl]phenyl]-(2-chloro-5-nitrophenyl)carboxamide], in the assay with leptin production (24 h), the activity at 1 µM was determined as 137%, the activity at 0.01 µM came out at 136% and the activity at 0.1 µM was found to be 133%. Moreover, the activity at 0.1 µM with Rat white adipocytes is 35.4%.
For the compound `CCCCCCCCN(C)c1ccc(-c2ccc(NC(=O)c3cc([N+](=O)[O-])ccc3Cl)cc2)cc1` [Example 226, N-[4-[4-(N-Methyl-N-octylamino)phenyl]phenyl]-(2-chloro-5-nitrophenyl)carboxamide], in the assay with leptin production (24 h), the activity at 0.01 µM came to 111%. Also, the activity at 0.1 µM with Rat white adipocytes came to 42%.
As to `CNC(=S)Nc1ccc(-c2ccc(NC(=O)c3cc([N+](=O)[O-])ccc3Cl)cc2)cc1` [Example 236, N-[4-[4-(Methylaminothiocarbonylamino)phenyl]phenyl]-(2-chloro-5-nitrophenyl)carboxamide], the activity at 0.01 µM in the assay on leptin production (24 h) worked out at 112%. Also, the activity at 0.1 µM with Rat white adipocytes was 47.1%.
Consider `O=C(Nc1ccccc1)Nc1ccc(-c2ccc(NC(=O)c3cc([N+](=O)[O-])ccc3Cl)cc2)cc1` [Example 242, N-[4-[4-(Phenylaminocarbonylamino)phenyl]phenyl]-(2-chloro-5-nitrophenyl)carboxamide], for which the results for the activity at 0.1 µM in the assay with leptin production (24 h) and in the assay with Rat white adipocytes were 111% and 57.6%, respectively.
In the case of `O=C(Nc1ccc(-c2ccc(NC(=O)c3cc([N+](=O)[O-])ccc3Cl)cc2)cc1)Nc1ccc(F)cc1F` [Example 249, N-[4-[4-[(2,4-Difluorophenyl)aminocarbonylamino]phenyl]phenyl]-(2-chloro-5-nitrophenyl)carboxamide], in the assay with leptin production (24 h), the activity at 1 µM amounted to 111%, the activity at 0.01 µM turned out to be 114% and the activity at 0.1 µM turned out to be 113%. Moreover, in the assay with Rat white adipocytes, the activity at 0.1 µM worked out at 61.9%.
As to `NC(=O)NCCc1ccc(NC(=O)c2cc([N+](=O)[O-])ccc2Cl)cc1` [Example 270, N-[4-(2-Aminocarbonylaminoethyl)phenyl]-(2-chloro-5-nitrophenyl)carboxamide], the activity at 0.01 µM with leptin production (24 h) came to 118%. Besides, in the assay on Rat white adipocytes, the activity at 0.1 µM is 45.9%.

Source of the values: patent US20030134859A1 (SANKYO COMPANY, LIMITED, priority 2000, published 2003).
